Results from patent US20230124862A1, “BISMUTH THIOL COMPOUNDS AND COMPOSITIONS AND METHODS OF TREATING MICROBIAL CO-INFECTIONS” (Microbion Corporation, priority 2020, published 2023).
Converted amounts (≈) assume the structure as drawn. Read-outs that look alike come from different tables or passages of the source. Marks after values point to notes of the source that are not given here.

How the values were obtained:
[1] = tested on: P. aeruginosa; assay: Broth microdilution MIC (Example 10); assay type: cell-based, Pseudomonas aeruginosa; settings: initial MIC testing
[2] = tested on: Burkholderia cepacia complex; assay type: cell-based, Burkholderia spp.; settings: initial MIC testing
[3] = tested on: Burkholderia cepacia complex; assay: Checkerboard FIC/FICI assay; assay type: cell-based, Burkholderia spp.; settings: during FIC testing
[4] = tested on: Candida glabrata; assay: Antifungal broth microdilution (Example 13); assay type: cell-based; settings: 50% inhibition
[5] = tested on: Aspergillus spp.; assay: Antifungal broth microdilution (Example 13); assay type: cell-based, A. niger, A. terreus, A. fumigatus, A. flavus; settings: minimum effective concentration
[6] = tested on: Candida krusei; assay: Antifungal broth microdilution (Example 13); assay type: cell-based; settings: 50% inhibition
[7] = tested on: Candida auris; assay: Antifungal broth microdilution (Example 13); assay type: cell-based; settings: 50% inhibition
[8] = tested on: vancomycin-intermediate Staphylococcus aureus (VISA); assay: Broth microdilution MIC (Example 12); assay type: cell-based; settings: Staphylococcus aureus, VISA, VISA isolates; read-out: MIC values

C[C@H]1[C@H](NC(=O)/C(=N\OC(C)(C)C(=O)O)c2csc(N)n2)C(=O)N1S(=O)(=O)O [AZT]
MIC ([1]; P. aeruginosa isolate 103, QC strain): […] | MIC ([1]; P. aeruginosa isolate 1497 (TOB-R AMK-R, CIP-I, AZT-R, COL-R)): […] | MIC ([1]; P. aeruginosa isolate 1530 (TOB-R, AMK-R, CIP-R)): […] | MIC ([1]; P. aeruginosa isolate 1553 (TOB-R, AMK-R, CIP-R)): […] | MIC ([1]; P. aeruginosa isolate 6322 (MEM-R, TOB-R, AMK-R, CIP-R, AZT-R)): […] | MIC ([1]; P. aeruginosa isolate 6977 (MEM-I, TOB-R, CIP-R, AZT-I)): […] | MIC ([1]; P. aeruginosa isolate 7745 (MEM-R, CIP-R, AZT-R)): […] | MIC ([1]; P. aeruginosa isolate 7754 (MEM-R, TOB-R, CIP-R, AZT-I)): […] | MIC ([1]; P. aeruginosa isolate 7762 (MEM-I, CIP-I)): […] | MIC ([1]; P. aeruginosa isolate 7871 (MEM-R, AZT-I)): […] | MIC ([1]; P. aeruginosa isolate 7874): […] | MIC ([1]; P. aeruginosa isolate 7886 (MEM-R, CIP-R, AZT-R)): […] | MIC ([1]; P. aeruginosa isolate 8797 (MEM-R, TOB-R, AMK-R, CIP-R, AZT-R, COL-R)): […] | MIC ([1]; P. aeruginosa isolate 8798 (MEM-R, TOB-R, AMK-R, CIP-R, AZT-R, COL-R)): […] | MIC ([1]; P. aeruginosa isolate 9108 (CIP-R, AZT-I)): […] | MIC ([2]; B. cenocepacia isolate 0548 (CIP-R)): […] | MIC ([2]; B. cenocepacia isolate 0813 (CPI-I)): […] | MIC ([2]; B. cenocepacia isolate 1631): […] | MIC ([2]; B. cenocepacia isolate 1783): […] | MIC ([2]; B. cepacia isolate 0546): […] | MIC ([2]; B. cepacia isolate 0547): […] | MIC ([2]; B. cepacia isolate 1794): […] | MIC ([2]; B. cepacia isolate 9040): […] | MIC ([2]; B. multivorans isolate 1580 (CIP-R)): […] | MIC ([2]; B. multivorans isolate 1791): […] | MIC ([2]; B. multivorans isolate 1795 (MEM-I, CIP-R)): […] | MIC ([2]; B. multivorans isolate 5665 (CIP-I)): […] | MIC ([2]; B. multivorans isolate 8952 (CIP-I)): […] | MIC ([3]; B. cenocepacia isolate 0548): 64 µg/mL | MIC ([3]; B. cenocepacia isolate 0813): […] | MIC ([3]; B. cepacia isolate 0546): […] | MIC ([3]; B. cepacia isolate 1793): 128 µg/mL | MIC ([3]; B. multivorans isolate 1795): 16 µg/mL

CC[C@H](C)C[C@H](C)CCCCCCCCC(=O)N[C@H]1C[C@@H](O)[C@@H](NCCN)NC(=O)[C@@H]2[C@@H](O)CCN2C(=O)[C@H]([C@H](O)CCN)NC(=O)[C@H]([C@H](O)[C@@H](O)c2ccc(O)cc2)NC(=O)[C@@H]2C[C@@H](O)CN2C(=O)[C@H]([C@@H](C)O)NC1=O [CASP]
MIC2 ([4]; C. glabrata ATCC 90030, Susceptible): 0.12 µg/mL | MIC2 ([4]; C. glabrata ATCC MYA-2950, Susceptible): 0.12 µg/mL | MIC2 ([4]; C. glabrata MMX 7087, Susceptible): 0.12 µg/mL | MIC2 ([4]; C. glabrata MMX 7093, FLU-R): 0.12 µg/mL | MIC2 ([4]; C. glabrata MMX 7101, FLU-R): 0.12 µg/mL | MIC2 ([4]; C. glabrata MMX 7103, CASP-R, MICA-R): >8 µg/mL | MIC2 ([4]; C. glabrata MMX 7111, Susceptible): 0.12 µg/mL | MIC2 ([4]; C. glabrata MMX 7285, CASP-R, MICA-R): 0.5 µg/mL | MIC2 ([4]; C. glabrata MMX 7307, CASP-R, MICA-R, FLU-R): >8 µg/mL | MIC2 ([4]; C. glabrata MMX 7549, Susceptible): 0.06 µg/mL | MEC ([5]; A. flavus ATCC 22546): 0.06 µg/mL | MEC ([5]; A. flavus ATCC 204304): 0.06 µg/mL | MEC ([5]; A. flavus MMX 7935): 0.03 µg/mL | MEC ([5]; A. fumigatus ATCC 204305): 0.25 µg/mL | MEC ([5]; A. fumigatus ATCC MYA-3626): 0.06 µg/mL | MEC ([5]; A. fumigatus MMX 5934): 0.12 µg/mL | MEC ([5]; A. fumigatus MMX 5938, 48 hr only, insufficient growth for 24 hr read): 0.12^b μg/mL | MEC ([5]; A. fumigatus MMX 5939): 0.12 µg/mL | MEC ([5]; A. niger ATCC 29508, 48 hr only, insufficient growth for 24 hr read): 0.06^b μg/mL | MEC ([5]; A. terreus MMX 8229, 48 hr only, insufficient growth for 24 hr read): 0.12^b μg/mL | MIC2 ([6]; C. krusei ATCC 6258, MICA-I): 0.25 µg/mL | MIC2 ([6]; C. krusei ATCC 14243, Susceptible): 0.012 µg/mL | MIC2 ([6]; C. krusei ATCC 96685, Susceptible): 0.12 µg/mL | MIC2 ([6]; C. krusei MMX 7125, Susceptible): 0.25 µg/mL | MIC2 ([6]; C. krusei MMX 7128, Susceptible): 0.25 µg/mL | MIC2 ([6]; C. krusei MMX 7141, Susceptible): 0.25 µg/mL | MIC2 ([6]; C. krusei MMX 7153, MICA-R): 0.25 µg/mL | MIC2 ([6]; C. krusei MMX 7155, Susceptible): 0.25 µg/mL | MIC2 ([6]; C. krusei MMX 7563, Susceptible): 0.12 µg/mL | MIC2 ([6]; C. krusei MMX 9878, MICA-I, VORI-I): 0.25 µg/mL | MIC2 ([7]; C. auris MMX 9862, Susceptible): 0.12 µg/mL | MIC2 ([7]; C. auris MMX 9863, FLU-R, VORI-R): 0.12^b μg/mL | MIC2 ([7]; C. auris MMX 9864, FLU-R, VORI-R): 0.25^b μg/mL | MIC2 ([7]; C. auris MMX 9865, FLU-R, VORI-R): 0.25^b μg/mL | MIC2 ([7]; C. auris MMX 9866, FLU-R, VORI-R): 0.12^b μg/mL | MIC2 ([7]; C. auris MMX 9867, FLU-R, VORI-R): 0.12 µg/mL | MIC2 ([7]; C. auris MMX 9868, FLU-R, VORI-R): 0.25 µg/mL | MIC2 ([7]; C. auris MMX 9869, FLU-R, VORI-R): 0.25 µg/mL | MIC2 ([7]; C. auris MMX 9870, FLU-R, VORI-R): 0.25 µg/mL | MIC2 ([7]; C. auris MMX 9871, Susceptible): 0.25^b μg/mL

CC(=O)NC[C@H]1CN(c2ccc(N3CCOCC3)c(F)c2)C(=O)O1 [linezolid, reference compound]
MIC [8]: < 4 µg/mL
